Test results taken from patent publication US20250248391A1, “VIABLE VITREOUS GRAFTS FOR PRESERVATION AND RECOVER OF TISSUE FOR TRANSPLANT AND CLINICAL USE” (Clemson University Research Foundation, priority 2024, published 2025).
Where two headings read alike, the source gives them in different places.

Experiments:
[1] = alamarBlue metabolic activity of meniscal specimens; type: cell-based, Yorkshire pigs; settings: 3.5 mm/SF: 3.5 mm specimens slow-frozen in Me2SO (10% v/v), normalized to specimen before treatment
Experimental: (§1) Following the completion of the warming and unloading steps, all tissues were subjected to recovery in DMEM supplemented with 1% P/S (e.g., DMEM/P/S) for one hour within a 37° C. incubator. Subsequently, the alamarBlue assay was conducted to assess the metabolic activity of tissues. This assay employs a water soluble fluorometric viability indicator, relying on the detection of metabolic activity. […] In the case of each meniscal specimen and each TMJ disc, evaluations were carried out both before and after different preservation treatments. For the whole meniscus, each fresh, slow-frozen, or vitrified sample underwent manual sectioning into sagittal sections, each measuring 1-2 mm in thickness, spanning from anterior to posterior horn. Within each region, a minimum of three sections were obtained.
(§2) Either each individual specimen or each section of the whole meniscus was incubated in 1 ml of DMEM/P/S and 100 μl alamarBlue reagent. This process was carried out under standard cell culture conditions for 3 hours. In contrast, each whole TMJ disc was incubated in 5.4 ml of DMEM/P/S and 600 μl alamarBlue reagent under standard cell culture conditions for 4 hours. Subsequently, fluorescence measurements were conducted in duplicate using a multimode microplate reader at an excitation wavelength of 544 nm and an emission wavelength of 590 nm. Following assessment, each sample was rinsed with DMEM/P/S for 30 mins to remove the alamarBlue reagent prior to proceeding with subsequent measurements. The time-course viability from day 0 to day 4 for each sample was assessed. In the case of meniscal specimens and whole TMJ discs, the results (expressed in relative fluorescence unit, RFU) of the slow-frozen and vitrified groups were normalized to the measurements taken from their respective fresh samples before any preservation treatments were applied. For the measurements of the whole meniscus, the results (expressed as RUF/mg of dry weight) from the slow-frozen and vitrified menisci were normalized to the corresponding values of fresh menisci within the same batch. Dry weight values of samples were measured using an analytical balance after being placed in a 60° C. oven over 48 hours subsequent to the completion of the time-course alamarBlue assay.

whole menisci [2] = experiment: Fluorescence live/dead viability of whole menisci; type: cell-based, Yorkshire pigs; settings: for Viability (%): whole menisci, SF (slow-frozen in Me2SO 10% v/v)
Experimental: (§3) Tissue viability was assessed by fluorescence live/dead staining. Each cylindrical specimen was longitudinally divided into two sections for imaging along the sagittal plane. To comprehensively assess the whole meniscus, both transverse and sagittal sections were prepared. In the case of transverse sections, a 300 μm thick slice of the whole meniscus was obtained using a vibrating blade microtome due to its larger surface area. For sagittal sections, approximately 1-2 mm thick slices were manually cut from corresponding regions. For the TMJ disc samples, strips measuring 6 mm in width, encompassing the anterior, central, posterior, medial, and lateral regions, were manually excised from the whole disc using a scalpel. All cut meniscal slices were immersed in DMEM with 1% P/S culture medium with 4 μM calcein AM and 2 μM ethidium homodimer-1 at room temperature for 2 hours before imaging. In contrast, the TMJ slices underwent staining with distinct dye concentrations: 2 µM calcein AM and 4 μM ethidium homodimer-1, following the same set of conditions. The green-fluorescent calcein indicates living cells by intracellular esterase activity, while the red-fluorescent ethidium homodimer-1 indicates dead cells by loss of plasma membrane integrity. All images were captured using an inverted multiphoton laser scanning microscope. The excitation wavelength was set as 800 nm. Green fluorescence was collected within the 495-540 nm range, and red fluorescence was collected in the 575-630 nm range. Images were taken at a depth of 60 μm below the tissue surface. The whole transverse section images of the whole menisci and the whole sagittal section images of the TMJ disc strips were captured using a 4× objective magnification and stitched together. An interesting view of each region was imaged using a higher objective magnification of 10×. All sagittal section images for meniscal specimens, three primary regions of whole menisci, and five primary regions of whole TMJ discs were captured using a 10× objective magnification for quantitative analysis. Live/dead quantification of 3.5 mm thick specimens was performed within the middle layer image (with a thickness of 1.26 mm) to avoid the count of dead cells on both surfaces associated with manual sectioning. In the context of sagittal sections in each region of the whole meniscus, images were acquired, and cell viability was quantified for the inner, middle, and outer layers. Images of sagittal sections in each region of the TMJ disc were acquired and used for viability quantification. Live/dead quantification was performed using software. Cell viability was defined as the proportion between the count of viable cells and the total cell count (comprising both live and dead cells).

whole menisci [3] = experiment: alamarBlue metabolic activity of whole menisci; type: cell-based, Yorkshire pigs
Experimental: as §1, §2

whole TMJ discs [4] = experiment: Fluorescence live/dead viability of whole TMJ discs; type: cell-based, Yorkshire pigs; settings: for Viability (%): Slow-frozen (Me2SO 10% v/v)
Experimental: as §3

whole TMJ discs [5] = experiment: alamarBlue metabolic activity of whole TMJ discs; type: cell-based, Yorkshire pigs; settings: Slow-frozen (Me2SO 10% v/v)
Experimental: as §1, §2

[6] = articular cartilage of calves, 22° C.; 3.1M Me2SO, 3.1M PG, 2.2M formamide; ref [4]; cited from earlier work
[7] = 6.5M, porcine articular cartilage, ref [5], cited from earlier work
[8] = human articular cartilage, ref [6], cited from earlier work
[9] = 1.4M, tissue-engineered collagen scaffold, 20° C.; ref [7]; cited from earlier work

With `C[S+](C)[O-]` [Me2SO, dimethyl sulfoxide] the “Metabolic activity, Viability (%)” value ([1]; Day 0 post-warming) was 47.0 ± 16.4%, the “Metabolic activity, Viability (%)” value ([1]; Day 1) was 43.0 ± 21.0% and the “Metabolic activity, Viability (%)” value ([1]; Day 2) was 39.0 ± 19.8%. The “Metabolic activity, Viability (%)” value ([1]; Day 3) was 39.5 ± 16.3%, the “Metabolic activity, Viability (%)” value ([1]; Day 4) was 52.6 ± 14.5% and the “viability in whole menisci, average” value (whole menisci [2]; slow freezing (Me2SO 10% v/v)) was ~21.6%. The “Viability (%)” value (whole menisci [2]; Anterior region) was 19.5 ± 9.6%, the “Viability (%)” value (whole menisci [2]; Central region) was 23.7 ± 6.4% and the “Viability (%)” value (whole menisci [2]; Inner layer of sagittal sections) was 20.3 ± 13.8%. The “Viability (%)” value (whole menisci [2]; Middle layer of sagittal sections) was 20.8 ± 8.9%, the “Viability (%)” value (whole menisci [2]; Outer layer of sagittal sections) was 24.6 ± 16.9% and the “Viability (%)” value (whole menisci [2]; Posterior region) was 21.4 ± 18.2%. For the same molecule, the “Metabolic activity, Viability (%)” value (whole menisci [3]; Anterior: SF (slow-frozen in Me2SO 10% v/v), Day 0 post-warming, normalized to fresh menisci day 0) was 32.9 ± 11.1%, the “Metabolic activity, Viability (%)” value (whole menisci [3]; Anterior: SF (slow-frozen in Me2SO 10% v/v), Day 1, normalized to fresh menisci day 0) was 39.7 ± 10.1% and the “Metabolic activity, Viability (%)” value (whole menisci [3]; Anterior: SF (slow-frozen in Me2SO 10% v/v), Day 2, normalized to fresh menisci day 0) was 31.4 ± 7.8%. For the same molecule, the “Metabolic activity, Viability (%)” value (whole menisci [3]; Anterior: SF (slow-frozen in Me2SO 10% v/v), Day 3, normalized to fresh menisci day 0) was 34.0 ± 6.9%, the “Metabolic activity, Viability (%)” value (whole menisci [3]; Anterior: SF (slow-frozen in Me2SO 10% v/v), Day 4, normalized to fresh menisci day 0) was 36.7 ± 7.5% and the “Metabolic activity, Viability (%)” value (whole menisci [3]; Central: SF (slow-frozen in Me2SO 10% v/v), Day 0 post-warming, normalized to fresh menisci day 0) was 43.1 ± 13.8%. For the same molecule, the “Metabolic activity, Viability (%)” value (whole menisci [3]; Central: SF (slow-frozen in Me2SO 10% v/v), Day 1, normalized to fresh menisci day 0) was 55.4 ± 16.8%, the “Metabolic activity, Viability (%)” value (whole menisci [3]; Central: SF (slow-frozen in Me2SO 10% v/v), Day 2, normalized to fresh menisci day 0) was 35.1 ± 11.4% and the “Metabolic activity, Viability (%)” value (whole menisci [3]; Central: SF (slow-frozen in Me2SO 10% v/v), Day 3, normalized to fresh menisci day 0) was 37.3 ± 9.6%. For the same molecule, the “Metabolic activity, Viability (%)” value (whole menisci [3]; Central: SF (slow-frozen in Me2SO 10% v/v), Day 4, normalized to fresh menisci day 0) was 35.3 ± 11.4%, the “Metabolic activity, Viability (%)” value (whole menisci [3]; Posterior: SF (slow-frozen in Me2SO 10% v/v), Day 0 post-warming, normalized to fresh menisci day 0) was 38.0 ± 9.3% and the “Metabolic activity, Viability (%)” value (whole menisci [3]; Posterior: SF (slow-frozen in Me2SO 10% v/v), Day 1, normalized to fresh menisci day 0) was 47.1 ± 7.2%. The “Metabolic activity, Viability (%)” value (whole menisci [3]; Posterior: SF (slow-frozen in Me2SO 10% v/v), Day 2, normalized to fresh menisci day 0) was 34.9 ± 7.3%, the “Metabolic activity, Viability (%)” value (whole menisci [3]; Posterior: SF (slow-frozen in Me2SO 10% v/v), Day 3, normalized to fresh menisci day 0) was 42.4 ± 7.4% and the “Metabolic activity, Viability (%)” value (whole menisci [3]; Posterior: SF (slow-frozen in Me2SO 10% v/v), Day 4, normalized to fresh menisci day 0) was 45.7 ± 13.5%. The “Viability (%)” value (whole TMJ discs [4]; Anterior) was 37.4 ± 2.7%, the “Viability (%)” value (whole TMJ discs [4]; Central) was 40.1 ± 4.2% and the “Viability (%)” value (whole TMJ discs [4]; Lateral) was 39.0 ± 2.7%. For the same molecule, the “Viability (%)” value (whole TMJ discs [4]; Medial) was 38.3 ± 3.5%, the “Viability (%)” value (whole TMJ discs [4]; Posterior) was 37.1 ± 2.2% and the viability (whole TMJ discs [4]; slow-frozen samples (Me2SO 10% v/v)) was “less than 40%”. The “Metabolic activity, Viability (%)” value (whole TMJ discs [5]; Day 0 post-warming, relative to respective fresh values) was 32.0 ± 0.8%, the “Metabolic activity, Viability (%)” value (whole TMJ discs [5]; Day 1, relative to respective fresh values) was 33.3 ± 0.5% and the “Metabolic activity, Viability (%)” value (whole TMJ discs [5]; Day 2, relative to respective fresh values) was 28.9 ± 0.5%. For the same molecule, the “Metabolic activity, Viability (%)” value (whole TMJ discs [5]; Day 3, relative to respective fresh values) was 29.1 ± 1.7%, the “Metabolic activity, Viability (%)” value (whole TMJ discs [5]; Day 4, relative to respective fresh values) was 28.0 ± 0.6% and the “D (× 10^−10 m^2/s)” value [6] was 4.63 ± 0.85 × 10^−10 m^2/s. The “D (× 10^−10 m^2/s)” value ([7]; 4° C.) was 2.4 × 10^−10 m^2/s, the “D (× 10^−10 m^2/s)” value ([7]; 22° C.) was 3.0 × 10^−10 m^2/s and the “D (× 10^−10 m^2/s)” value ([7]; 37° C.) was 4.5 × 10^−10 m^2/s. For the same molecule, the “D (× 10^−10 m^2/s)” value ([8]; 1.4M, 4° C.) was 6.1 × 10^−10 m^2/s, the “D (× 10^−10 m^2/s)” value ([8]; 1.4M, 27° C.) was 14.4 × 10^−10 m^2/s and the “D (× 10^−10 m^2/s)” value ([8]; 14M, 4° C.) was 3.1 × 10^−10 m^2/s. The “D (× 10^−10 m^2/s)” value ([8]; 14M, 27° C.) was 6.8 × 10^−10 m^2/s and the “D (× 10^−10 m^2/s)” value [9] was 2.4 × 10^−10 m^2/s.

For `CC(O)CO` (stereo not shown) [PG, propylene glycol], the “D (× 10^−10 m^2/s)” value [6] is listed as 3.47 ± 0.67 × 10^−10 m^2/s, the “D (× 10^−10 m^2/s)” value ([7]; 4° C.) is listed as 0.9 × 10^−10 m^2/s and the “D (× 10^−10 m^2/s)” value ([7]; 22° C.) is listed as 1.6 × 10^−10 m^2/s. For the same molecule, the “D (× 10^−10 m^2/s)” value ([7]; 37° C.) was 2.2 × 10^−10 m^2/s.

In the case of `NC=O` [formamide], the “D (× 10^−10 m^2/s)” value [6] is given as 6.67 ± 0.70 × 10^−10 m^2/s.
